Marks after values point to notes of the source that are not given here.
Tested on: yeast induced pyrexia
Assay: Antipyretic effect on yeast induced pyrexia in rats
Type: in vivo
Settings: Paracetamol 150 mg/kg

With `CC(=O)Nc1ccc(O)cc1` [Paracetamol] the “Rectal temperature before and after treatment” value (0 h) was 37.7 ± 0.2 °C, the “Rectal temperature before and after treatment” value (1 h) was 39.0 ± 0.2 °C and the “Rectal temperature before and after treatment” value (2 h) was 38.1 ± 0.3 °C. The “Rectal temperature before and after treatment” value (3 h) was 37.7 ± 0.2^b ° C and the “Rectal temperature before and after treatment” value (4 h) was 37.6 ± 0.2 °C.
